This note sets out measurements from patent publication US10206908B2, “3-(1H-pyrrolo[3,2-C]pyridin-2-YL)-1H-pyrazolo[3,4-C]pyridines and therapeutic uses thereof” (Samumed, LLC, priority 2015, dated 2019).

As a reminder, the inhibition is the change of the read-out against control, counted positive when it falls.

Format in all cases: cell-based
Assay [1] has as its system primary human mesenchymal stem cells (hMSCs). As to the kind of experiment: Induction of chondrogenesis in hMSCs (chondrogenic nodules, Rhodamine B/Nile Red). The conditions noted are these: 6 days; for EC50: concentration required to induce 50% levels of chondrogenesis vs TGF-β3, read-out: Conc (nM) of 50% TGF-β3 activity; for Emax: relative to TGF-β3 (10 ng/mL) positive control, read-out: Max. Activity as % TGF-β3 activity. The essentials: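 Primary hMSCs at passages 3 to 6 were scored for chondrogenic nodules. Counts were normalized to the mean of 3 DMSO wells on the same plate, averaging 3 replicate wells per concentration. TGF-β3 served as positive control; reported values are the concentration giving 50% chondrogenesis plus maximum activity and its dose.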

A further assay relates to IL-6 (THP-1 cells). The assay is described as follows: IL-6 inhibition in LPS-stimulated THP-1 monocytes (HTRF). The following applies: Homo sapiens; for EC50: IL-6, THP-1 cells, LPS 500 ng/mL, 22 hours; for inhibition at 10 µM: THP-1, read-out: percent inhibition at 10 μM. The method in brief:
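THP-1 cells kept 24 h in 1% FBS medium, exposed to compound 2 h at 37 °C, then stimulated with 500 ng/mL LPS for 22 h. Secreted IL-6 quantified by HTRF (665/620 nm ratio), duplicates. Values normalized to DMSO; EC50 by four-parameter variable-slope regression.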
In general terms: In TR-FRET formats the signal depends on donor and acceptor labels being close together.

Assay [2] deals with Wnt activity (Sp5-Luc reporter, SW480 colon carcinoma cells). The assay is described as follows: Screening assay for Wnt activity: Sp5-Luc reporter gene assay in SW480 colon carcinoma cells. The conditions noted are these: Homo sapiens; Sp5-Luc reporter, SW480 cells, overnight incubation. The method in brief:
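SW480 colon carcinoma cells stably carrying Sp5 promoter (eight TCF/LEF sites)-driven firefly luciferase, plated at 4,000 cells/well in 1% FBS medium and incubated overnight at 37° C. Luminescence normalised to DMSO-only cells; EC50 from four-parameter variable-slope nonlinear regression.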

In another assay the test system is SW480 colon cancer cells. As to the kind of experiment: Cell viability assay (CellTiter-Blue) in SW480 colon cancer cells. The conditions noted are these: Homo sapiens; for EC50: 96 h, SW480 cell viability, four days; for inhibition at 10 µM: SW480, read-out: percent inhibition at 10 μM. The method in brief:
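Fluorescence from resazurin reduced to resorufin by metabolically active cells was the read-out, taken after ~3 h with CellTiter-Blue.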
Background: The colour change of resazurin is a common sign of viable cells or microbes.

For assay [3], the system named is primary human fibroblasts derived from IPF patients (LL29 cells) treated with TGF-β1. The assay is described as follows: Inhibition of the fibrotic process: αSMA staining in TGF-β1 treated LL29 fibroblasts. The following applies: Fibroblast, 96 h, % αSMA positive LL29 cells, TGF-β1 20 ng/mL, 4 days. The essentials: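 Read-out after 4-day incubation: αSMA staining with 1 μM SYTOX green nuclear counterstain (30 min, room temperature). Cells were LL29 primary fibroblasts from IPF patients, in 1% FBS F12, exposed to TGF-β1 with test compound, referenced to TGF-β1/DMSO control wells.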

As to `CN1CCN(c2nccc3[nH]c(-c4n[nH]c5cnc(-c6cncc(NC(=O)C(C)(C)C)c6)cc45)cc23)CC1` [Compound 232, N-(5-(3-(4-(4-Methylpiperazin-1-yl)-1H-pyrrolo[3,2-c]pyridin-2-yl)-1H-pyrazolo[3,4-c]pyridin-5-yl)pyridin-3-yl)pivalamide], the EC50 was 10 nM in assay [1]; 0.388 µM in the assay on IL-6 (THP-1 cells); 1.88 µM in assay [2]; over 10 µM in the assay on SW480 colon cancer cells; 0.756 µM in assay [3]. Also, the Emax in assay [1] turned out to be 88%. Besides, the inhibition at 10 µM in the assay on SW480 colon cancer cells stood at 62.2%.

As to `CCCCC(=O)Nc1cncc(-c2cc3c(-c4cc5cnccc5[nH]4)n[nH]c3cn2)c1` [Compound 271, N-(5-(3-(1H-Pyrrolo[3,2-c]pyridin-2-yl)-1H-pyrazolo[3,4-c]pyridin-5-yl)pyridin-3-yl)pentanamide], the Emax in assay [1] came out at 50%. In addition, the EC50 with IL-6 (THP-1 cells) was 4.61 µM; in assay [2], 3.88 µM; in the assay with SW480 colon cancer cells it was over 10 µM; in assay [3], 4.69 µM. Further, in the assay with SW480 colon cancer cells, the inhibition at 10 µM worked out at 26.2%.

On to `c1csc(-c2nccc3[nH]c(-c4n[nH]c5cnc(-c6cncc(CN7CCCCC7)c6)cc45)cc23)c1` [Compound 351, 5-(5-(Piperidin-1-ylmethyl)pyridin-3-yl)-3-(4-(thiophen-2-yl)-1H-pyrrolo[3,2-c]pyridin-2-yl)-1H-pyrazolo[3,4-c]pyridine], for which the EC50 was 10 nM in assay [1]; over 10 µM in the assay with IL-6 (THP-1 cells); 3.65 µM in assay [2]; 2.4 µM in the assay with SW480 colon cancer cells; 1.99 µM in assay [3]. Moreover, in assay [1], the Emax was found to be 59%. In addition, the inhibition at 10 µM with IL-6 (THP-1 cells) was found to be 0%.

Turning to `CN1CCN(c2nccc3[nH]c(-c4n[nH]c5cnc(-c6cncc(CN7CCC(F)(F)C7)c6)cc45)cc23)CC1` [Compound 250, 5-(5-((3,3-Difluoropyrrolidin-1-yl)methyl)pyridin-3-yl)-3-(4-(4-methylpiperazin-1-yl)-1H-pyrrolo[3,2-c]pyridin-2-yl)-1H-pyrazolo[3,4-c]pyridine], the EC50 came to 10 nM in assay [1]; 0.323 µM with IL-6 (THP-1 cells); 1.1 µM in assay [2]; 2.37 µM with SW480 colon cancer cells; 0.641 µM in assay [3]. For the same compound, in assay [1], the Emax is 76%.

`O=C(Nc1cncc(-c2cc3c(-c4cc5cnccc5[nH]4)n[nH]c3cn2)c1)c1ccccc1` [Compound 263, N-(5-(3-(1H-Pyrrolo[3,2-c]pyridin-2-yl)-1H-pyrazolo[3,4-c]pyridin-5-yl)pyridin-3-yl)benzamide]: the EC50 in assay [1] is 10 nM; in the assay on IL-6 (THP-1 cells) it was over 10 µM; in assay [2], 0.58 µM; in the assay on SW480 colon cancer cells, over 10 µM; in assay [3], 0.097 µM. Moreover, the Emax in assay [1] was 152%. Besides, the inhibition at 10 µM was found to be 10.3% in the assay with IL-6 (THP-1 cells) and 8.5% in the assay with SW480 colon cancer cells.
